Active and inactive are the calls of the source. The calls are words filed in the database; no cut-off is given here.
Legend:
Mus musculus [1] = assay: Hypoglycemic activity in six hrs fasted C57BL6/J mouse assessed as reduction in blood glucose level at 30 nmol/kg, sc measured upto 120 mins post injection by glucometer analysis; type: functional, organism-based
Mus musculus [2] = assay: Hypoglycemic activity in six hrs fasted C57BL6/J mouse assessed as improvement in glucose disposal at 30 nmol/kg, sc pre-administered with compound for 60 mins followed by glucose addition and measured upto 120 mins; type: functional, organism-based; conditions: time <= 180.0 min
[3] = target: Glucagon-like peptide 1 receptor (Homo sapiens) (UniProt P43220); assay: Agonist activity human GLP-1R stably expressed in HEK293-A cells assessed as […] in cAMP accumulation incubated for 30 mins by fluorescence resonance energy transfer analysis; type: functional, cell-based; conditions: filed as agonist
Sequence of Glucagon-like peptide 1 receptor (Homo sapiens) (P43220 whole entry): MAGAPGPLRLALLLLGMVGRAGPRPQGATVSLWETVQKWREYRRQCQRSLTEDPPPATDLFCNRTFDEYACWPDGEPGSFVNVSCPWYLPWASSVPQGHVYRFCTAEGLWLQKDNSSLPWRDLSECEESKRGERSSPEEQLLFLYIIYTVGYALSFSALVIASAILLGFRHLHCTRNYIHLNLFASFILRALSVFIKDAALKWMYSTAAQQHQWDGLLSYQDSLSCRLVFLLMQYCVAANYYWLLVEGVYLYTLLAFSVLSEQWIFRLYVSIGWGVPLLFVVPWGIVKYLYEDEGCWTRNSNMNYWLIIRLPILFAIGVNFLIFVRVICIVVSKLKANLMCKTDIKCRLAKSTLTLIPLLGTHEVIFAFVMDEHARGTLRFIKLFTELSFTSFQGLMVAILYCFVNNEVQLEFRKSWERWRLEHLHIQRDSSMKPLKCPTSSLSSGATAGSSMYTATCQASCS

Activity [3]	Compound	Activity (Mus musculus [1])	Activity (Mus musculus [2])
	SEMAGLUTIDE	Active	
Active	CC[C@H](C)[C@H](NC(=O)[C@H](Cc1ccccc1)NC(=O)[C@H](CCC(=O)O)NC(=O)[C@H](CC(=O)N[C@@H]1O[C@H](CO)[C@@H](O[C@@H]2O[C@H](CO)[C@@H](O[C@@H]3O[C@H](CO[C@H]4O[C@H](CO)[C@@H](O)[C@H](O)[C@@H]4O[C@@H]4O[C@H](CO)[C@@H](O[C@@H]5O[C@H](CO[C@]6(C(=O)O)C[C@H](O)[C@@H](NC(C)=O)[C@H]([C@H](O)[C@H](O)CO)O6)[C@H](O)[C@H](O)[C@H]5O)[C@H](O)[C@H]4NC(C)=O)[C@@H](O)[C@H](O[C@@H]4O[C@H](CO)[C@H](O)[C@@H](O)[C@H]4O[C@@H]4O[C@H](CO)[C@@H](O[C@@H]5O[C@H](CO[C@]6(C(=O)O)C[C@H](O)[C@@H](NC(C)=O)[C@H]([C@H](O)[C@H](O)CO)O6)[C@H](O)[C@H](O)[C@H]5O)[C@H](O)[C@H]4NC(C)=O)[C@@H]3O)[C@H](O)[C@H]2NC(C)=O)[C@H](O)[C@H]1NC(C)=O)NC(=O)[C@H](C)NC(=O)[C@H](C)NC(=O)[C@H](CCC(N)=O)NC(=O)CNC(=O)[C@H](CCC(=O)O)NC(=O)[C@H](CC(C)C)NC(=O)[C@H](Cc1ccc(O)cc1)NC(=O)[C@H](CO)NC(=O)[C@H](CO)NC(=O)[C@@H](NC(=O)[C@H](CC(=O)O)NC(=O)[C@H](CO)NC(=O)[C@@H](NC(=O)[C@H](Cc1ccccc1)NC(=O)[C@@H](NC(=O)CNC(=O)[C@H](CCC(=O)O)NC(=O)C(C)(C)NC(=O)[C@@H](N)Cc1c[nH]cn1)[C@@H](C)O)[C@@H](C)O)C(C)C)C(=O)N[C@@H](C)C(=O)N[C@@H](Cc1c[nH]c2ccccc12)C(=O)N[C@@H](CC(C)C)C(=O)N[C@H](C(=O)N[C@@H](CCCNC(=N)N)C(=O)NCC(=O)N[C@@H](CCCNC(=N)N)C(=O)NCC(=O)O)C(C)C	Active	Active

— ChEMBL document CHEMBL5543110, “Engineering of a Biologically Active Glycosylated Glucagon-Like Peptide-1 Analogue” (J Med Chem, 2024)
